{
  "source": "patent US20060148009A1",
  "about": "“Prediction and assessment of immunogenicity” (Xencor, Inc., priority 2004, published 2006)",
  "system": "MHC class II proteins on B cells (DRB1*0701 DQA1*0201 DQB1*0202)",
  "assay": "Peptide binding assay: competition of biotinylated EBV280-290 binding to B cells, flow cytometry",
  "details": "FIG. 29",
  "description": "Peptide binding to MHC class II proteins on the surface of Epstein-Barr virus-transformed B lymphocytes was tested by quantitative flow cytometric analysis (Busch et al. 1990), with modifications. Low resolution HLA typed B cell lines (DR2 and DR7) were obtained from the Coriell Institute for Medical Research (Camden, N.J.). Those cell lines were HLA typed at high resolution for DRB1, DQA1 and DQB1. The B cell lines GM03107, GM08605, and Jesthom were selected for binding studies. The following MHC allele and reference peptide combinations were used: DRB1*0101 and influenzae peptide HA307-319, […] (SEQ ID NO:48) (Busch, R. 1991); DRB1*0701 and Epstein-Barr virus peptide EBV280-290, […] (SEQ ID NO:49) (Omiya et al., 2002); DRB1*1501 and myelin basic protein MBP84-100, […] (SEQ ID NO:50) (Fridkis-Hareli et al., 2001). A biotin molecule followed by a caproic acid-caproic acid spacer was added to the N-terminus of the reference peptides. The binding of biotinylated peptides to the MHC molecules was tested at various pH values. The pH 5.5 was used to test competition with IFN-β peptides. Detection of peptide binding was done with streptavidin-AlexaFluor546 (Molecular Probes, Eugene, O.R.) in a PCA-96 flow cell counter (Guava Technologies Inc., Hayward, Calif.). […]",
  "data": [
    {"sequence": "HYLKAKEYSHCAWTIVR", "values": [
      {"measurement": "competition of EBV280-290 peptide binding to B cells", "value": "dose-dependent competition"}
    ]}
  ]
}
